According to DBAASP:
Values after ≈ are worked out from the molar mass of the structure shown. Values joined by “and” are separate entries in the source; they are usually repeats but may differ in a detail not shown here. Equal entries are not always repeated. Values belong to the molecule of their own block, whether it stands above or below them.

Key:
Test in all cases: ≥ marks a high value that may be exact or a test limit, other limits are often not marked, values filed in µg/mL are converted to µM
[1] = tested on: Staphylococcus aureus DBFIQ S21
[2] = tested on: Listeria monocytogenes DBFIQ LM3
[3] = tested on: Bacillus subtilis KCTC 3068
[4] = tested on: Staphylococcus epidermidis KCTC 1917
[5] = tested on: Salmonella typhimurium CCARM 8003
[6] = tested on: Staphylococcus aureus CCARM 3114
[7] = tested on: Pseudomonas aeruginosa KCTC 1637
[8] = tested on: Escherichia coli KCTC 1682
[9] = tested on: Escherichia coli CCARM 1229
[10] = tested on: Staphylococcus aureus KCTC 1621
[11] = tested on: Salmonella typhimurium KCTC 1926
[12] = tested on: Staphylococcus aureus CCARM 3089
[13] = tested on: Staphylococcus aureus CCARM 3108
Candida albicans = tested on: Candida albicans
Aspergillus flavus = tested on: Aspergillus flavus
Malassezia furfur = tested on: Malassezia furfur
[14] = tested on: Salmonella typhimurium CCARM 8007
Trichosporon beigelii = tested on: Trichosporon beigelii
[15] = tested on: Staphylococcus haemolyticus M2976
Escherichia coli M9884 = tested on: Escherichia coli M9884
Acinetobacter sp. M9013 = tested on: Acinetobacter sp. M9013
Acinetobacter sp. M5949 = tested on: Acinetobacter sp. M5949
Staphylococcus warneri = tested on: Staphylococcus warneri
[16] = tested on: Enterococcus gallinarum M2723
[17] = tested on: Pseudomonas aeruginosa M5470
[18] = tested on: Staphylococcus saprophyticus M4070
[19] = tested on: Enterococcus faecalis M6983
[20] = tested on: Klebsiella pneumoniae M9170
[21] = tested on: Pseudomonas aeruginosa ATCC 27853
[22] = tested on: Klebsiella pneumoniae PFAV 3
[23] = tested on: Staphylococcus epidermidis M2923
[24] = tested on: Pseudomonas aeruginosa M13513
[25] = tested on: Enterococcus faecium M2304
[26] = tested on: Enterococcus faecalis M6534
Acinetobacter sp. M13523 = tested on: Acinetobacter sp. M13523
[27] = tested on: Enterococcus faecalis M4899
[28] = tested on: Staphylococcus aureus P204
Acinetobacter sp. M9665 = tested on: Acinetobacter sp. M9665
[29] = tested on: Staphylococcus aureus M6276
[30] = tested on: Pseudomonas aeruginosa PACO12
[31] = tested on: Enterococcus gallinarum M2685
[32] = tested on: Escherichia coli ATCC 25922
[33] = tested on: Staphylococcus hominis M2973
Staphylococcus cohnii = tested on: Staphylococcus cohnii
[34] = tested on: Enterococcus faecium PZAP 95
[35] = tested on: Staphylococcus aureus P33
[36] = tested on: Staphylococcus epidermidis M2921
[37] = tested on: Enterococcus faecalis ATCC 51299
[38] = tested on: Staphylococcus hominis M2967
[39] = tested on: Enterococcus faecalis ATCC 29212
[40] = tested on: Staphylococcus aureus ATCC 25923

- MIC [1]: ≥ 69.6 µM
- MIC [2]: ≥ 69.6 µM
SMILES: CC[C@H](C)[C@H](NC(=O)[C@H](C)NC(=O)[C@@H](NC(=O)[C@H](C)NC(=O)CN)[C@@H](C)O)C(=O)N[C@@H](CCCCN)C(=O)N[C@@H](CCC(N)=O)C(=O)N[C@H](C(=O)N[C@@H](CCCCN)C(=O)N[C@@H](CCCCN)C(=O)N[C@@H](CC(C)C)C(=O)N[C@@H](Cc1c[nH]c2ccccc12)C(=O)N[C@@H](CCCCN)C(=O)N[C@@H](CCCCN)C(=O)N[C@@H](CCCCN)C(=O)NCC(=O)NCC(N)=O)C(C)C [GATAIKQVKKLWKKKGG]

- MIC [3]: 4 µM (≈ 4.56 µg/mL)
- MIC [4]: 2 µM (≈ 2.28 µg/mL)
- MIC [5]: ≥ 32 µM
- MIC [6]: 16 µM (≈ 18.2 µg/mL)
- MIC [7]: 16 µM (≈ 18.2 µg/mL)
- MIC [8]: 4 µM (≈ 4.56 µg/mL)
- MIC [9]: 8 µM (≈ 9.12 µg/mL)
- MIC [10]: 4 µM (≈ 4.56 µg/mL)
- MIC [11]: 16 µM (≈ 18.2 µg/mL)
- MIC [12]: 8 µM (≈ 9.12 µg/mL)
- MIC [13]: 4 µM (≈ 4.56 µg/mL)
SMILES: CC[C@H](C)[C@H](NC(=O)[C@H](C)NC(=O)[C@H](CC(C)C)NC(=O)[C@H](Cc1c[nH]c2ccccc12)NC(=O)[C@H](CC(C)C)NC(=O)[C@@H](N)CCCN=C(N)N)C(=O)NCC(=O)N[C@@H](CCCN=C(N)N)C(=O)N[C@@H](CCCN=C(N)N)C(N)=O [RLWLAIGRR]

- MIC [3]: 2 µM (≈ 2.57 µg/mL)
- MIC [4]: 1 µM (≈ 1.28 µg/mL)
- MIC [5]: 4 µM (≈ 5.13 µg/mL)
- MIC [6]: 8 µM (≈ 10.3 µg/mL)
- MIC (Candida albicans): 2.5 µM (≈ 3.21 µg/mL)
- MIC [7]: 8 µM (≈ 10.3 µg/mL)
- MIC [8]: 2 µM (≈ 2.57 µg/mL)
- MIC [9]: 4 µM (≈ 5.13 µg/mL)
- MIC [10]: 2 µM (≈ 2.57 µg/mL)
- MIC [11]: 2 µM (≈ 2.57 µg/mL)
- MIC (Aspergillus flavus): 5 µM (≈ 6.42 µg/mL)
- MIC (Malassezia furfur): 1.25 µM (≈ 1.6 µg/mL)
- MIC [14]: 8 µM (≈ 10.3 µg/mL)
- MIC [12]: 4 µM (≈ 5.13 µg/mL)
- MIC (Trichosporon beigelii): 5 µM (≈ 6.42 µg/mL)
SMILES: CC(C)C[C@H](NC(=O)[C@H](Cc1c[nH]c2ccccc12)NC(=O)[C@H](CC(C)C)NC(=O)[C@@H](N)CCCN=C(N)N)C(=O)N[C@@H](C)C(=O)N[C@@H](Cc1c[nH]c2ccccc12)C(=O)N[C@@H](CCCCN)C(=O)N[C@@H](CCCN=C(N)N)C(=O)N[C@@H](CCCN=C(N)N)C(N)=O [RLWLAWKRR]

- MIC (Escherichia coli M9884): ≥ 44 µM
- MIC (Acinetobacter sp. M9013): 11 µM (≈ 32 µg/mL)
- MIC (Acinetobacter sp. M5949): ≥ 88 µM
- MIC (Staphylococcus warneri): 2.75 µM (≈ 8 µg/mL)
- MIC [16]: 11 µM (≈ 32 µg/mL)
- MIC [17]: ≥ 44 µM
- MIC [18]: 5.5 µM (≈ 16 µg/mL)
- MIC [19]: 22 µM (≈ 64 µg/mL)
- MIC [20]: ≥ 352 µM
- MIC [21]: 22 µM (≈ 64 µg/mL)
- MIC [22]: ≥ 352 µM
- MIC [23]: 5.5 µM (≈ 16 µg/mL)
- MIC [24]: 11 µM (≈ 32 µg/mL)
- MIC [25]: 5.5 µM (≈ 16 µg/mL)
- MIC [26]: ≥ 44 µM
- MIC (Acinetobacter sp. M13523): 22 µM (≈ 64 µg/mL)
- MIC [27]: ≥ 88 µM
- MIC [28]: 22 µM (≈ 64 µg/mL)
- MIC (Acinetobacter sp. M9665): ≥ 44 µM
- MIC [29]: 5.5 µM (≈ 16 µg/mL)
- MIC [30]: 22 µM (≈ 64 µg/mL)
- MIC [31]: 5.5 µM (≈ 16 µg/mL)
- MIC [32]: 44 µM and 43.9 µM
- MIC [33]: 1.37 µM (≈ 4 µg/mL)
- MIC (Staphylococcus cohnii): 5.5 µM (≈ 16 µg/mL)
- MIC [34]: 11 µM (≈ 32 µg/mL)
- MIC [35]: 11 µM (≈ 32 µg/mL)
- MIC [36]: 2.75 µM (≈ 8 µg/mL)
- MIC [37]: ≥ 88 µM
- MIC [38]: 2.75 µM (≈ 8 µg/mL)
- MIC [39]: 22 µM (≈ 64 µg/mL)
- MIC [40]: 11 µM and 10.9 µM
SMILES: C[C@H](NC(=O)[C@H](CCCCN)NC(=O)[C@H](CCCCN)NC(=O)[C@H](CCCN=C(N)N)NC(=O)CNC(=O)[C@H](Cc1c[nH]c2ccccc12)NC(=O)[C@H](CCCN=C(N)N)NC(=O)[C@H](CCCN=C(N)N)NC(=O)[C@H](CCCCN)NC(=O)[C@H](Cc1c[nH]c2ccccc12)NC(=O)[C@H](CCCCN)NC(=O)[C@H](Cc1c[nH]c2ccccc12)NC(=O)[C@H](Cc1c[nH]c2ccccc12)NC(=O)[C@H](CCCCN)NC(=O)[C@@H]1CCCN1C(=O)[C@@H](N)Cc1c[nH]c2ccccc12)C(=O)N[C@@H](CCCCN)C(=O)N[C@@H](CCCCN)C(=O)N[C@@H](CCCN=C(N)N)C(=O)N[C@@H](CCCN=C(N)N)C(=O)NCC(N)=O [WPKWWKWKRRWGRKKAKKRRG]
- MIC [15]: 5.5 µM (≈ 16 µg/mL)
